Tested on: S.D. rats
Test: Indomethacin-Induced Ulcer Assay (assay B)
Format: in vivo
Details: 15 min prior to indomethacin 10 mg/kg p.o., 24 hr. fasted rats, sacrificed four hours later
Procedure: B. Indomethacin-Induced Ulcer Assay
Indomethacin, 10 mg/kg p.o., is used to induce ulcers in 24 hr. fasted S.D. rats. Fifteen minutes prior to indomethacin administration, groups of rats each receive either an aqueous vehicle (5% wt. methylcellulose) or the test compound at various doses perorally. Four hours later the animals are sacrificed and stomach mucosae are examined for resulting ulcers.
Following the procedure of assay B (Indomethacin-Induced Ulcer Assay), various compounds were tested for ulcer inhibition.

Row | SMILES | % Inhib. (Dose 30 mg/kg p.o.) [%] | % Inhib. (Dose 0.1 mg/kg p.o.) [%] | % Inhib. (Dose 1 mg/kg p.o.) [%] | % Inhib. (Dose 10 mg/kg p.o.) [%] | other results
1 | CCCc1c(OCCCS(=O)(=O)c2ccc([C@H](O)[C@@H](C)CC(=O)O)cc2)ccc(C(C)=O)c1O (relative stereo) [Example 77, (Beta S^*, gamma R^*) sodium 4-(3-(4-acetyl-3-hydroxy-2-propylphenoxy)propylsulfonyl)-gamma-hydroxy-beta-methylenzenebutanoate] | 46.5 | – | – | – | –
2 | CCCc1c(OCCCSc2ccc([C@H](O)[C@@H](C)CC(=O)O)cc2)ccc(C(C)=O)c1O (relative stereo) [Example 78, (Beta S^*, gamma R^*)-sodium 4-(3-(4-acetyl-3-hydroxy-2-propylphenoxy)propylthio)-gamma-hydroxy-beta-methyl-benzenebutanoate] | – | 27.1 | 70.1 | 76.1 | % Inhib. (Dose 0.03 mg/kg p.o.): 14.1%; % Inhib. (Dose 0.3 mg/kg p.o.): 50.1%; % Inhib. (Dose 3 mg/kg p.o.): 74.1%
3 | CCCc1c(OCCCOc2ccc([C@H](O)[C@@H](C)CC(=O)[O-])cc2)ccc(C(C)=O)c1O.[Na+] (relative stereo) [Example 103, Sodium (beta S^*, gamma R^*) 4-(3-(4-acetyl-3-hydroxy-2-propylphenoxy)propyloxy)-gamma-hydroxy-beta-methylbenzenebutanoate] | – | 61.1 | 76.1 | 74.1 | –
4 | CCCc1c(OCCCS(=O)(=O)c2ccc(C(=O)CCC(=O)O)cc2)ccc(C(C)=O)c1O [Example 29, 4-(3-(4-Acetyl-3-hydroxy-2-propylphenoxy)-propylsulfonyl)-gamma-oxobenzenebutanoic acid] | 78.9 | – | – | – | –
5 | CCCc1c(OCCCSc2ccc(C(=O)CCC#N)cc2)ccc(C(C)=O)c1O [Example 40, 4-(3-(4-acetyl-3-hydroxy-2-propyl-phenoxy)propylthio)-gamma-oxobenzenebutyronitrile] | 89.4 | – | – | – | –

From patent publication EP0156233A2, “Use of leukotriene antagonists for producing cytoprotective pharmaceutical compositions and process for producing cytoprotective pharmaceutical compositions” (Merck & Co., Inc., priority 1984, dated 1985)
